From ChEMBL document CHEMBL2074540, “Induction of multidrug resistance protein 3 (mrp3) in vivo is independent of constitutive androstane receptor” (Drug Metab Dispos, 2003) come the findings set out here.

The target in series [1] is ATP-binding cassette sub-family C member 3 (Mus musculus, UniProt B2RX12). In words: TP_TRANSPORTER: Branched DNA Assay in vivo, liver of mouse. It counts as functional, organism-based.
Series [2] concerns the target ATP-binding cassette sub-family C member 3 (Rattus norvegicus, UniProt O88563). Put plainly: TP_TRANSPORTER: Branched DNA Assay in vivo, liver of WKY rat. In kind it is functional, organism-based.

Sequence of ATP-binding cassette sub-family C member 3 (Mus musculus, UniProt B2RX12) (B2RX12 whole entry): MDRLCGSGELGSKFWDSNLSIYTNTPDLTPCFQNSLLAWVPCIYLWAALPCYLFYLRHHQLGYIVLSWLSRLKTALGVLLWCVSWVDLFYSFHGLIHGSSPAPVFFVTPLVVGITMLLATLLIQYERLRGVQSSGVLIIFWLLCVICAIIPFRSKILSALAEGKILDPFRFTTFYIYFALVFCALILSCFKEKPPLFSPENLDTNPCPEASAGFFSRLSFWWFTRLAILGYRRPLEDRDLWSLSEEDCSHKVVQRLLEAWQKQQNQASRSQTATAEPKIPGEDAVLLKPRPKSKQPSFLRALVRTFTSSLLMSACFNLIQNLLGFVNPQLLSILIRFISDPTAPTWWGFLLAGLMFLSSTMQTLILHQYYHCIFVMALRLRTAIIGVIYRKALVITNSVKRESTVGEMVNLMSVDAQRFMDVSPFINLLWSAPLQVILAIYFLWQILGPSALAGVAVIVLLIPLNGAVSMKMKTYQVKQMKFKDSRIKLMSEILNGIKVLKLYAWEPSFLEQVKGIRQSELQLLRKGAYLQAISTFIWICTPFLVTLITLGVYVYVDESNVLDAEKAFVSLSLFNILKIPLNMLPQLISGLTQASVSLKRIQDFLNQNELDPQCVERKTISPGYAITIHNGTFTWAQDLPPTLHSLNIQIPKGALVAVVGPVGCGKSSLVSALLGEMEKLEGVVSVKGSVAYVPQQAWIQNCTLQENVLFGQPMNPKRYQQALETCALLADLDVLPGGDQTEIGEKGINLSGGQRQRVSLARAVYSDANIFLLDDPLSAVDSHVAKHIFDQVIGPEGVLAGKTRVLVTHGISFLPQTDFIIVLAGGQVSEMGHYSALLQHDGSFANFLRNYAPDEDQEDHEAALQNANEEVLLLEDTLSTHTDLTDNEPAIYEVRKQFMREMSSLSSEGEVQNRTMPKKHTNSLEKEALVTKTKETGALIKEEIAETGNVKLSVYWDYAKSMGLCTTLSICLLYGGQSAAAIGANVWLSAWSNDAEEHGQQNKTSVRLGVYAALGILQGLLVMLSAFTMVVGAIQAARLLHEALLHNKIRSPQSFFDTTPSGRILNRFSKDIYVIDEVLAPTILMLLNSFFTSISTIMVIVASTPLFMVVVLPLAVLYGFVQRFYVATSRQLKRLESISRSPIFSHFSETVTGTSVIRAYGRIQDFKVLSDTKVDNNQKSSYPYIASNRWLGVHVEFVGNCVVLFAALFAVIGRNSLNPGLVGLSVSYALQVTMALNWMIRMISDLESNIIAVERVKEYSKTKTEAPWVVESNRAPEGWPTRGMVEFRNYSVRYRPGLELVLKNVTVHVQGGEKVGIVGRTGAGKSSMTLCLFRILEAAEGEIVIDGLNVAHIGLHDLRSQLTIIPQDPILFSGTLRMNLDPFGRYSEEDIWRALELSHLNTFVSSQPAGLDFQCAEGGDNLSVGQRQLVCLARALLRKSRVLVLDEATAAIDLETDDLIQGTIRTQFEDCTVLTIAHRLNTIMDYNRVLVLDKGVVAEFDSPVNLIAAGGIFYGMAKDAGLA
Sequence of ATP-binding cassette sub-family C member 3 (Rattus norvegicus, UniProt O88563) (O88563 whole entry): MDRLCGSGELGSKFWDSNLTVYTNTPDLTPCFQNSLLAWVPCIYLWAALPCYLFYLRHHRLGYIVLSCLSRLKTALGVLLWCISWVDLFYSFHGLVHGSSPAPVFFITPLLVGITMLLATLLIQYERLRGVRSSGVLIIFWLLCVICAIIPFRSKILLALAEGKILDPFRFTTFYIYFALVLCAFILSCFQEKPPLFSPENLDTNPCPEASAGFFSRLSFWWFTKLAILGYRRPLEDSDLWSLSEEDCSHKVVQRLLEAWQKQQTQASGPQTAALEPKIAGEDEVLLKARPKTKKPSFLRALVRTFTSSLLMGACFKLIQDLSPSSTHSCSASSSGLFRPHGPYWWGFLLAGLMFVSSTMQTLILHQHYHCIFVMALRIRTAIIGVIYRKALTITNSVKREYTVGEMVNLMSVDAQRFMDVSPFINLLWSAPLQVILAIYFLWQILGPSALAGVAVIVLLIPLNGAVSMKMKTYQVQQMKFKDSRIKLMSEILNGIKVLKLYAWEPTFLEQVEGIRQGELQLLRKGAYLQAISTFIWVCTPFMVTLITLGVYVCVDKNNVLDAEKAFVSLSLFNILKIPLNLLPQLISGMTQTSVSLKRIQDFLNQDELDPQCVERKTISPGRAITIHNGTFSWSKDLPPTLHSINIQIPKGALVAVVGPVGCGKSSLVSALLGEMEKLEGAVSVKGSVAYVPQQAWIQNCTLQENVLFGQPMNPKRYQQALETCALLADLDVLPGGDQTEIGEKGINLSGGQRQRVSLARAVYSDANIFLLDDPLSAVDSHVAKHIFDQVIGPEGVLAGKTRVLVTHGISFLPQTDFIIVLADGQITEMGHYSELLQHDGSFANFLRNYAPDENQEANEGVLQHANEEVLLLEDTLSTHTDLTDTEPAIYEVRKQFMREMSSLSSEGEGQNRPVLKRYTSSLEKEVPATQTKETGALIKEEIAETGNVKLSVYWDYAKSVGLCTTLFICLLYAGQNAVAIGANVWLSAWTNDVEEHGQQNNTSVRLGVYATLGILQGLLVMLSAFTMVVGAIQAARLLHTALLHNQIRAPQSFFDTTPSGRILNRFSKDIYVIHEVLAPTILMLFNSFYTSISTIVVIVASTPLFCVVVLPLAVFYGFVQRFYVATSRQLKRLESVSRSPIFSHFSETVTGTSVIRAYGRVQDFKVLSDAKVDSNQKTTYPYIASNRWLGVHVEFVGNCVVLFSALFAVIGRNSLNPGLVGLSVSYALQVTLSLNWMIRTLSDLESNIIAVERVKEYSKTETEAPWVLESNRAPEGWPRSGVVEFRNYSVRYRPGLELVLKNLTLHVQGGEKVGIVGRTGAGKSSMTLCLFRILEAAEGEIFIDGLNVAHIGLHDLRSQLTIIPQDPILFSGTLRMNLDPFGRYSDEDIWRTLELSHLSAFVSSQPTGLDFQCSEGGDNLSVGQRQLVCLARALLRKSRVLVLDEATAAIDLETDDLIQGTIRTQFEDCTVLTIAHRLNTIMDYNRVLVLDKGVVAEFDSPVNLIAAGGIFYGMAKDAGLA

As to `c1ccc([C@H]2O[C@@H]2c2ccccc2)cc1` (relative stereo), the Activity entry in series [1] and in series [2] was “inducer []” throughout.

As for `C=CCSCC=C` [DIALLYL SULFIDE], the Activity entry in series [1] and in series [2] was “inducer []” in each case.

`Cc1c(-c2cnccn2)ssc1=S` [OLTIPRAZ]: the Activity result in series [1] and in series [2] was “inducer []” each time.

For `CCC1(c2ccccc2)C(=O)NC(=O)NC1=O` [PHENOBARBITAL], the Activity entry in series [1] and in series [2] was “inducer []” throughout.
